Test results taken from PubChem BioAssay AID200 (DTP/NCI, 2004).
Values joined by “and” are separate entries in the source; they are usually repeats but may differ in a detail not shown here. Identical values can stand only once. Inconclusive results and toxic doses are left out. Where a SMILES comes first, the peptide text is derived from it. [ ]: non-standard residue; d: D form. The star is where a group is joined. Nle = CCCC[CH](N)C(=O)O; Cbz = O=C(OCc1ccccc1)*; Nva = CCC[CH](N)C(=O)O

Test system: B6C3F1 mice, B16 melanoma ip, median survival T/C
Test: NCI In Vivo Anticancer Drug Screen. Data for tumor model B16 Melanoma (intraperitoneal) in B6C3F1 mice
Details: endpoint: median survival time, higher = longer survival
Outline: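 Transplantable tumor in mice; treated vs vehicle control groups; survival or tumor size measured; value = T/C ratio.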

[1] = dose: 12.5 mg/kg/injection, schedule: Q01DX009 (ip), vehicle: Klucel (hydroxypropylcellulose) (HPC)
[2] = dose: 25.0 mg/kg/injection, schedule: Q01DX009 (ip), vehicle: Klucel (hydroxypropylcellulose) (HPC)
[3] = dose: 50.0 mg/kg/injection, schedule: Q01DX009 (ip), vehicle: Klucel (hydroxypropylcellulose) (HPC)
[4] = dose: 100.0 mg/kg/injection, schedule: Q01DX009 (ip), vehicle: Klucel (hydroxypropylcellulose) (HPC)
[5] = dose: 200.0 mg/kg/injection, schedule: Q01DX009 (ip), vehicle: Klucel (hydroxypropylcellulose) (HPC)
[6] = dose: 6.25 mg/kg/injection, schedule: Q01DX009 (ip), vehicle: Klucel (hydroxypropylcellulose) (HPC)
[7] = dose: 12.5 mg/kg/injection, schedule: Q01DX009 (ip), vehicle: saline with Tween-80
[8] = dose: 25.0 mg/kg/injection, schedule: Q01DX009 (ip), vehicle: saline with Tween-80
[9] = dose: 50.0 mg/kg/injection, schedule: Q01DX009 (ip), vehicle: saline with Tween-80
[10] = dose: 100.0 mg/kg/injection, schedule: Q01DX009 (ip), vehicle: saline with Tween-80
[11] = dose: 200.0 mg/kg/injection, schedule: Q01DX009 (ip), vehicle: saline with Tween-80
[12] = dose: 6.0 mg/kg/injection, schedule: Q01DX009 (ip), vehicle: saline with Tween-80
[13] = dose: 12.5 mg/kg/injection, schedule: Q01DX009 (ip), vehicle: suspension in saline
[14] = dose: 25.0 mg/kg/injection, schedule: Q01DX009 (ip), vehicle: suspension in saline
[15] = dose: 100.0 mg/kg/injection, schedule: Q01DX009 (ip), vehicle: saline
[16] = dose: 200.0 mg/kg/injection, schedule: Q01DX009 (ip), vehicle: saline
[17] = dose: 400.0 mg/kg/injection, schedule: Q01DX009 (ip), vehicle: saline with Tween-80

SMILES: O=S(=O)(SC(S(=O)(=O)c1ccccc1)S(=O)(=O)c1ccccc1)c1ccccc1
- T/C [1]: 109 % of control
- T/C [2]: 115 % of control
- T/C [3]: 114 % of control
- T/C [4]: 107 % of control
- T/C [5]: 106 % of control
- T/C (dose: 400.0 mg/kg/injection, schedule: Q01DX009 (ip), vehicle: Klucel (hydroxypropylcellulose) (HPC)): 98 % of control

SMILES: CC(C)[NH-].CC(C)[NH-].[Cl][Pt+2][Cl]
- T/C (dose: 1.56 mg/kg/injection, schedule: Q01DX009 (ip), vehicle: other): 122 % of control
- T/C (dose: 3.12 mg/kg/injection, schedule: Q01DX009 (ip), vehicle: other): 120 % of control

SMILES: S=c1nc[nH]c2nc[nH]c12
- T/C [6]: 100 % of control
- T/C (dose: 7.5 mg/kg/injection, schedule: Q01DX009 (ip), vehicle: Klucel (hydroxypropylcellulose) (HPC)): 97 % of control
- T/C [1]: 94 % of control
- T/C [2]: 96 % of control

SMILES: Cc1cc2c(cc1C)C(=O)c1c(O)c3c(c(O)c1C2=O)C[C@@](O)(C(=O)CO)C[C@@H]3OC1CC(N)C(O)C(C)O1 (stereo partly specified)
- T/C (dose: 2.5 mg/kg/injection, schedule: Q01DX001 (ip), vehicle: water): 193 % of control
- T/C (dose: 5.0 mg/kg/injection, schedule: Q01DX001 (ip), vehicle: water): 162 % of control and 193 % of control
- T/C (dose: 10.0 mg/kg/injection, schedule: Q01DX001 (ip), vehicle: water): 213 % of control and 236 % of control
- T/C (dose: 20.0 mg/kg/injection, schedule: Q01DX001 (ip), vehicle: water): 155 % of control and 240 % of control

SMILES: C/C=C/C=C1/OC(C)=C(C(C)=O)C1=O
- T/C [7]: 99 % of control
- T/C [8]: 99 % of control
- T/C [9]: 106 % of control
- T/C [10]: 98 % of control
- T/C [11]: 109 % of control

SMILES: O=C(O[Si](Cc1ccccc1)(Cc1ccccc1)Cc1ccccc1)N(CCCl)CCCl
- T/C [12]: 103 % of control
- T/C [7]: 108 % of control
- T/C [8]: 101 % of control and 106 % of control
- T/C [9]: 113 % of control and 106 % of control

SMILES: O=c1[nH]c(=O)n([C@H]2CCCO2)cc1F
- T/C [13]: 98 % of control
- T/C [14]: 100 % of control
- T/C (dose: 50.0 mg/kg/injection, schedule: Q01DX009 (ip), vehicle: suspension in saline): 112 % of control
- T/C (dose: 100.0 mg/kg/injection, schedule: Q01DX009 (ip), vehicle: suspension in saline): 107 % of control
- T/C (dose: 200.0 mg/kg/injection, schedule: Q01DX009 (ip), vehicle: suspension in saline): 120 % of control

SMILES: COC(=O)C(Cc1ccc(O)cc1)NC(=O)C(Cc1ccccc1)NC(C)=O (stereo not drawn) (Ac-Phe-Tyr-OMe; configuration not given here)
- T/C [2]: 92 % of control
- T/C [3]: 92 % of control
- T/C [4]: 92 % of control
- T/C [5]: 86 % of control

SMILES: CC(O)C(NC(=O)OC(C)(C)C)C(=O)ON1C(=O)CCC1=O (stereo unspecified)
- T/C [9]: 98 % of control
- T/C [10]: 96 % of control
- T/C [11]: 91 % of control

SMILES: CSc1nc(N)cc(NC(=O)CCl)n1
- T/C [2]: 102 % of control
- T/C [3]: 100 % of control
- T/C [4]: 92 % of control

SMILES: CCCCC(NC(=O)C(CCC)NC(=O)OCc1ccccc1)C(=O)O (stereo unspecified) (Cbz-[Nva]-[Nle]-OH; configuration not given here)
- T/C [4]: 104 % of control
- T/C [5]: 101 % of control

SMILES: CCCCCC#CC1OC12CCCCC2 (stereo unspecified)
- T/C [7]: 100 % of control
- T/C (dose: 12.5 mg/kg/injection, schedule: Q01DX009 (ip), vehicle: saline): 99 % of control
- T/C [8]: 100 % of control
- T/C (dose: 25.0 mg/kg/injection, schedule: Q01DX009 (ip), vehicle: saline): 105 % of control
- T/C [9]: 108 % of control
- T/C (dose: 50.0 mg/kg/injection, schedule: Q01DX009 (ip), vehicle: saline): 104 % of control
- T/C [10]: 100 % of control
- T/C [15]: 97 % of control
- T/C [11]: 93 % of control
- T/C [16]: 95 % of control

SMILES: CN(C)CCC(C#N)(CCC1CCCCC1)c1ccccc1 (stereo unspecified)
- T/C (dose: 10.0 mg/kg/injection, schedule: Q01DX009 (ip), vehicle: saline): 95 % of control
- T/C (dose: 20.0 mg/kg/injection, schedule: Q01DX009 (ip), vehicle: saline): 95 % of control
- T/C (dose: 40.0 mg/kg/injection, schedule: Q01DX009 (ip), vehicle: saline): 92 % of control

SMILES: COC1=C(NC(C)=O)C(=O)c2nc(-c3nc(C(=O)O)c(C)c(-c4ccc(OC)c(OC)c4O)c3N)ccc2C1=O
- T/C [6]: 103 % of control
- T/C [1]: 95 % of control
- T/C [2]: 86 % of control
- T/C [3]: 97 % of control

SMILES: CC(C)CC(NC(=O)CN)C(=O)O (stereo unspecified)
- T/C [10]: 101 % of control
- T/C [11]: 95 % of control
- T/C [17]: 97 % of control

SMILES: CCCCCn1c(C)cc(/C=C\c2ccc3cc(C)ccc3[n+]2C)c1C
- T/C (dose: 39.0 micrograms/kg/injection, schedule: Q01DX009 (ip), vehicle: Klucel (hydroxypropylcellulose) (HPC)): 93 % of control
- T/C (dose: 78.0 micrograms/kg/injection, schedule: Q01DX009 (ip), vehicle: Klucel (hydroxypropylcellulose) (HPC)): 95 % of control
- T/C (dose: 156.0 micrograms/kg/injection, schedule: Q01DX009 (ip), vehicle: Klucel (hydroxypropylcellulose) (HPC)): 100 % of control
- T/C (dose: 312.0 micrograms/kg/injection, schedule: Q01DX009 (ip), vehicle: Klucel (hydroxypropylcellulose) (HPC)): 100 % of control
- T/C (dose: 625.0 micrograms/kg/injection, schedule: Q01DX009 (ip), vehicle: Klucel (hydroxypropylcellulose) (HPC)): 96 % of control

SMILES: CC(=O)O[C@H]1C(=O)[C@@]2(C)C(C(OC(=O)c3ccccc3)[C@]3(O)CC(OC(=O)[C@H](OC(=O)CCC(=O)O)C(NC(=O)c4ccccc4)c4ccccc4)C(C)=C1C3(C)C)C1(OC(C)=O)COC1C[C@@H]2OC(=O)CCC(=O)O (stereo partly specified)
- T/C (dose: 2.75 mg/kg/injection, schedule: Q01DX009 (ip), vehicle: sodium bicarbonate): 109 % of control
- T/C (dose: 2.75 mg/kg/injection, schedule: Q01DX009 (ip), vehicle: water): 120 % of control
- T/C (dose: 5.5 mg/kg/injection, schedule: Q01DX009 (ip), vehicle: sodium bicarbonate): 113 % of control
- T/C (dose: 5.5 mg/kg/injection, schedule: Q01DX009 (ip), vehicle: water): 114 % of control
- T/C (dose: 11.0 mg/kg/injection, schedule: Q01DX009 (ip), vehicle: sodium bicarbonate): 124 % of control
- T/C (dose: 22.0 mg/kg/injection, schedule: Q01DX009 (ip), vehicle: sodium bicarbonate): 105 % of control
- T/C (dose: 22.0 mg/kg/injection, schedule: Q01DX009 (ip), vehicle: water): 109 % of control
- T/C (dose: 44.0 mg/kg/injection, schedule: Q01DX009 (ip), vehicle: sodium bicarbonate): 114 % of control
- T/C (dose: 44.0 mg/kg/injection, schedule: Q01DX009 (ip), vehicle: water): 166 % of control

SMILES: Nc1nc(SCc2ccccc2Cl)c2ncn(C3OC(CO)C(O)C3O)c2n1 (stereo unspecified)
- T/C [7]: 106 % of control
- T/C [8]: 90 % of control

SMILES: CCCCCC[C@H]([C@H](C)O)n1cnc2c(N)ncnc21
- T/C [1]: 122 % of control
- T/C [2]: 88 % of control
- T/C [3]: 111 % of control and 92 % of control
- T/C [4]: 84 % of control and 92 % of control
- T/C [5]: 79 % of control

SMILES: CC(C)(C)OC(=O)NC(CCC(=O)O)C(=O)O (stereo unspecified)
- T/C [15]: 107 % of control
- T/C [16]: 107 % of control
- T/C (dose: 400.0 mg/kg/injection, schedule: Q01DX009 (ip), vehicle: saline): 94 % of control

SMILES: Cc1ccc(C(=N)c2ccccc2Cc2cccc3ccccc23)c(C)c1
- T/C (dose: 0.75 mg/kg/injection, schedule: Q01DX009 (ip), vehicle: saline with Tween-80): 107 % of control
- T/C (dose: 1.5 mg/kg/injection, schedule: Q01DX009 (ip), vehicle: saline with Tween-80): 112 % of control
- T/C (dose: 3.0 mg/kg/injection, schedule: Q01DX009 (ip), vehicle: saline with Tween-80): 97 % of control
- T/C [12]: 98 % of control

SMILES: O=C1C=CC(=O)N1c1ccc(Cl)cc1
- T/C (dose: 0.31 mg/kg/injection, schedule: Q01DX009 (ip), vehicle: Klucel (hydroxypropylcellulose) (HPC)): 100 % of control and 102 % of control
- T/C (dose: 0.63 mg/kg/injection, schedule: Q01DX009 (ip), vehicle: Klucel (hydroxypropylcellulose) (HPC)): 111 % of control and 86 % of control
- T/C (dose: 1.25 mg/kg/injection, schedule: Q01DX009 (ip), vehicle: Klucel (hydroxypropylcellulose) (HPC)): 96 % of control and 100 % of control
- T/C (dose: 2.5 mg/kg/injection, schedule: Q01DX009 (ip), vehicle: Klucel (hydroxypropylcellulose) (HPC)): 100 % of control

SMILES: NC(=O)c1ncn2c(=O)n(CCCl)nnc12
- T/C (dose: 3.13 mg/kg/injection, schedule: Q01DX009 (ip), vehicle: suspension in saline): 123 % of control
- T/C [13]: 225 % of control
- T/C [14]: 209 % of control

SMILES: Clc1ccc(CN2COc3c(ccc4cccnc34)C2)cc1Cl
- T/C [7]: 102 % of control
- T/C [8]: 109 % of control
- T/C [9]: 92 % of control

SMILES: C[Si](C)(C)n1nnn(-c2ccccc2)c1=O
- T/C [7]: 101 % of control and 103 % of control
- T/C [8]: 100 % of control and 105 % of control
- T/C [9]: 119 % of control and 100 % of control
- T/C [10]: 92 % of control and 95 % of control
- T/C [11]: 93 % of control and 101 % of control
- T/C [17]: 95 % of control
